# In US9994518B2, “Alpha-7 nicotinic acetylcholine receptor modulators and uses thereof” (MERCK SHARP & DOHME CORP., priority 2014, dated 2018):
# Target: T1, α7 nAChR (rat α7/CHO cells) (Rattus norvegicus, UniProt Q05941)
# T1 construct: expressed in transfected cells; host or cells: CHO cells (α7/CHO)
# Experiment: Evaluation of modulators of α7 nAChRs using the IonFlux HT automated patch clamp system (potentiation of EC20 ACh-evoked currents)
# Type: cell-based
# Conditions: percent potentiation of ACh (EC20, approx. 60 μM) response in α7/CHO cells; 6-point dose response 0.03-10 μM; whole cell patch clamp
# Experimental: Evaluation of Modulators of α7 nAChRs Using the IonFlux^HT Automated Patch Clamp System
# Acetylcholine was freshly prepared for each plate run and used at an EC20 concentration (approximately 60 μM for rat α7/CHO) to induce α7 nAChR currents on the IonFlux^HT. To prepare the ACh solution for a single plate, 6 μl of the 100 mM ACh stock was diluted into 10 ml of 0.3% DMSO/external solution
# Test compounds were prepared for a 6-point dose response from 0.03-10 μM. Working stocks were prepared from serial dilutions of 10 mM DMSO stock solutions to give a final DMSO concentration of 0.3%. 80 μl of the final concentration of each compound was added to the appropriate wells in an IonFlux^HT assay plate.
# 2×T175 flasks of α7/CHO cells (˜60-70% confluent) were washed twice with PBS and trypsinized (2 ml) for 3.5 minutes at 37° C./5% CO2. Cells were collected in F-12K complete media, counted and the number required for the assay was calculated, for example, 2×10^6 cells in a final volume of 670 μl of external solution were required to load one zone (one quarter) of an IonFlux^HT assay plate. The correct number of cells was pelleted by centrifuge, the supernatant was discarded and the cell pellet was resuspend in external solution at the required concentration so that cells were added in a volume of 80 μl per well to the IonFlux^HT assay plate.
# Calculation of the Effect of Compounds on ACh Mediated Currents in α7 nAChRs:
# The effect of test compounds on EC20 ACh-evoked currents was calculated by the formula: […]
# The rinse protocol was the initial step in preparation of the IonFlux^HT plate. 80 μl of MilliQ water was added to every well (except Out wells) and the IonFlux^HT assay plate was run through the water rinse protocol on the machine. At the end of the run, the water was discarded from the wells. This action was repeated twice.
# Briefly, to prepare the plate for the assay aliquots of cells, compounds and internal and external solutions were added to wells of the prepared IonFlux^HT plate (80 μl/well) (solutions made to manufacturer's specifications). Automated whole cell patch-clamp recordings were made using the standard IonFlux^HT single application protocol. Vacuum was held at 6 psi/hg throughout the experiment and membrane potential was held at −80 mV for 35 sec and then at −60 mV during data acquisition. Two ACh (EC20) pulses were applied at the beginning of the assay, 90 seconds apart, to provide an ACh baseline response then cells were perfused with modulators for 89 sec before ACh (EC20) was applied for 1 s. The calculation of percent potentiation of the acetylcholine response for each well was performed by the data analysis software supplied with the IonFlux^HT.
# The following compounds were tested in accordance with the above-procedure for activity and the EC50 values determined are reported: […]
# T1 sequence (Q05941 23-502): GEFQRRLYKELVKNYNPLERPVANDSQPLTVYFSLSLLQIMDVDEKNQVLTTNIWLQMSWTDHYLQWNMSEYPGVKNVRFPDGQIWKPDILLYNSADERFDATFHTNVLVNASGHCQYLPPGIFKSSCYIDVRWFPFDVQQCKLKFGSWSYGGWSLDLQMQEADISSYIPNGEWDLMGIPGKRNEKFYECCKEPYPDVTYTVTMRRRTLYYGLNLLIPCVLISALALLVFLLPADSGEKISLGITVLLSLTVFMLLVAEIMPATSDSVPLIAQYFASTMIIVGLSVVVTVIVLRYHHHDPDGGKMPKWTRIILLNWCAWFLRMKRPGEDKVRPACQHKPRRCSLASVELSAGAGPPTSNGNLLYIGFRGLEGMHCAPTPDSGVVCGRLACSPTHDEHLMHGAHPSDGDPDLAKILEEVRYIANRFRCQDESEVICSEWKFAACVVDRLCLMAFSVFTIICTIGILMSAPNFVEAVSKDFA
row,EC50 [µM],Structure (SMILES)
1,0.105,"COc1ccc(Cl)cc1OC[C@@H]1[C@@H](c2ccc(S(N)(=O)=O)cc2)C1(C)C (racemic) [Exp. 1, ±trans 4-{3-[(5-chloro-2-methoxyphenoxy)methyl]-2,2-dimethylcyclopropyl}benzenesulfonamide]"
2,0.143,"COc1ccc(Cl)cc1OC[C@@H]1[C@@H](c2ccc(S(N)(=O)=O)cc2)C12CCCC2 (racemic) [Exp. 2, ±trans 4-{2-[(5-chloro-2-methoxyphenoxy)methyl]spiro[2.4]hept-1-yl}benzenesulfonamide]"
3,2.52,"COc1cc(F)ccc1OC[C@H]1[C@H](c2ccc(S(N)(=O)=O)cc2)C1(C)C (single isomer, unassigned) [Exp. 30]"
4,0.2,"Cc1cc(F)ccc1OC[C@H]1[C@H](c2ccc(S(N)(=O)=O)cc2)C1(C)C (single isomer, unassigned) [Exp. 31]"
5,0.811,"CC1(C)[C@@H](COc2ccc(F)cc2C#N)[C@@H]1c1ccc(S(N)(=O)=O)cc1 (single isomer, unassigned) [Exp. 32]"
6,0.546,"Cc1ccc(OC[C@H]2[C@H](c3ccc(S(N)(=O)=O)cc3)C2(C)C)cn1 (single isomer, unassigned) [Exp. 33]"
7,1.62,"Cc1ncccc1OC[C@H]1[C@H](c2ccc(S(N)(=O)=O)cc2)C1(C)C (single isomer, unassigned) [Exp. 34]"
8,0.395,"Cc1cc(F)ccc1OC[C@@H]1[C@@H](c2ccc(S(N)(=O)=O)cc2)C1(C)C (single isomer, unassigned) [Exp. 35]"
9,0.164,"COc1ccc(F)cc1OC[C@H]1[C@H](c2ccc(S(N)(=O)=O)cc2)C1(C)C (single isomer, unassigned) [Exp. 36]"
10,6,"N#Cc1cc(F)ccc1OC[C@@H]1C[C@H]1c1ccc(S(N)(=O)=O)cc1 (single isomer, unassigned) [Exp. 37]"
11,1.14,"NS(=O)(=O)c1ccc([C@@H]2C[C@H]2COc2ccc(F)cc2C(F)(F)F)cc1 (single isomer, unassigned) [Exp. 38]"
12,5.36,"COc1ccc(OC[C@@H]2C[C@H]2c2ccc(S(N)(=O)=O)cc2)c(OC)n1 (single isomer, unassigned) [Exp. 39]"
13,1.06,"COc1ccc(Cl)cc1OC[C@@H]1C[C@H]1c1ccc(S(N)(=O)=O)cc1 (single isomer, unassigned) [Exp. 40]"
14,2.59,"COc1cc(F)ccc1OC[C@@H]1C[C@H]1c1ccc(S(N)(=O)=O)cc1 (single isomer, unassigned) [Exp. 41]"
15,0.625,"CC1(C)[C@H](COc2ccccc2OC(F)F)[C@H]1c1ccc(S(N)(=O)=O)cc1 (single isomer, unassigned) [Exp. 42]"
16,1.56,"COc1ccc(F)cc1OC[C@@H]1[C@@H](c2ccc(S(N)(=O)=O)cc2)C1(C)C (single isomer, unassigned) [Exp. 43]"

row,EC50 [µM],Structure (SMILES)
1,2.94,"COc1cc(F)ccc1OC[C@H]1C[C@@H]1c1ccc(S(N)(=O)=O)cc1 (single isomer, unassigned) [Exp. 44]"
2,2.51,"N#Cc1cc(F)ccc1OC[C@H]1C[C@@H]1c1ccc(S(N)(=O)=O)cc1 (single isomer, unassigned) [Exp. 45]"
3,0.701,"NS(=O)(=O)c1ccc([C@H]2C[C@@H]2COc2ccc(F)cc2C(F)(F)F)cc1 (single isomer, unassigned) [Exp. 46]"
4,3.7,"COc1ccc(Cl)cc1OC[C@H]1C[C@@H]1c1ccc(S(N)(=O)=O)cc1 (single isomer, unassigned) [Exp. 47]"
5,0.612,"COc1ccccc1CC[C@@H]1[C@@H](c2ccc(S(N)(=O)=O)cc2)C1(C)C (single isomer, unassigned) [Exp. 48]"
6,0.064,"COc1ccc(Cl)cc1CC[C@@H]1[C@@H](c2ccc(S(N)(=O)=O)cc2)C12CCCC2 (single isomer, unassigned) [Exp. 49]"
7,0.19,"COc1ccc(Cl)cc1CC[C@H]1[C@H](c2ccc(S(N)(=O)=O)cc2)C12CCCC2 (single isomer, unassigned) [Exp. 50]"
8,0.626,"COc1ccc(Cl)cc1CC[C@H]1C[C@@H]1c1ccc(S(N)(=O)=O)cc1 (single isomer, unassigned) [Exp. 51]"
9,0.054,"COc1ccc(Cl)cc1CC[C@H]1[C@H](c2ccc(S(N)(=O)=O)cc2)C1(C)C (single isomer, unassigned) [Exp. 52]"
10,2.19,"COc1ccc(Cl)cc1OC[C@@H]1C[C@@H]1c1ccc(S(N)(=O)=O)cc1 (single isomer, unassigned) [Exp. 53]"
11,0.124,"COc1ccc(Cl)cc1CC[C@@H]1[C@@H](c2ccc(S(N)(=O)=O)cc2)C1(C)C (single isomer, unassigned) [Exp. 54]"
12,1.47,"CC1(C)[C@H](COc2ccc(Cl)cn2)[C@H]1c1ccc(S(N)(=O)=O)cc1 (single isomer, unassigned) [Exp. 55]"
13,> 10,"Cc1ncc(OC[C@H]2[C@H](c3ccc(S(N)(=O)=O)cc3)C2(C)C)cn1 (single isomer, unassigned) [Exp. 56]"
14,> 10,"CC1(C)[C@@H](COc2cncnc2)[C@@H]1c1ccc(S(N)(=O)=O)cc1 (single isomer, unassigned) [Exp. 57]"
15,> 10,"N#Cc1cc(F)ccc1OC[C@@H]1C[C@@H]1c1ccc(S(N)(=O)=O)cc1 (single isomer, unassigned) [Exp. 58]"

# Tested on: not given
# Experiment: not given
# Conditions: not given
row,melting point [°C],Structure (SMILES)
1,158 to 160,"COc1ccc(Cl)cc1OC[C@@H]1[C@@H](c2ccc(S(N)(=O)=O)cc2)C1(C)C (racemic) [Exp. 1, ±trans 4-{3-[(5-chloro-2-methoxyphenoxy)methyl]-2,2-dimethylcyclopropyl}benzenesulfonamide]"
2,56 to 58,"COc1ccc(Cl)cc1OC[C@@H]1[C@@H](c2ccc(S(N)(=O)=O)cc2)C12CCCC2 (racemic) [Exp. 2, ±trans 4-{2-[(5-chloro-2-methoxyphenoxy)methyl]spiro[2.4]hept-1-yl}benzenesulfonamide]"
